# According to article PMC11007962, “First-in-human study of GFH018, a small molecule inhibitor of transforming growth factor-β receptor I inhibitor, in patients with advanced solid tumors” (BMC Cancer, 2024):
# “Also recorded” adds a separate entry of the source. Read-outs that look alike come from different tables or passages of the source.
# Test system: patients with advanced solid tumors
# [1] = 85 mg BID 14d-on/14d-off (N = 12)
# [2] = all 50 patients, none related to GFH018
# Protocol: The study consisted of a dose-escalation part followed by an expansion part. In the dose escalation part, a 3-day pharmacokinetic (PK) lead-in period was conducted for a single dose in the first treatment cycle. Patients received GFH018 once on cycle 1 day 1 (C1D1) and underwent serial PK testing over the first 3 days. On C1D4, patients were administered the corresponding dose of GFH018 BID 14 days on/14 days off. The first cycle was defined as 31 days, including 3-day PK leading-in period with GFH018 single dosing and then 14d-on/14d-off dosing schedule. The subsequent cycles were 28 days. The starting dose of GFH018 was 5 mg, with eight planned dose levels up to 85 mg (5, 10, 20, 30, 40, 50, 65, and 85 mg). A modified 3+3 design was used to determine the maximum tolerance dose (MTD) and RDE, guided by safety/tolerability and PK data. Dose-limiting toxicities (DLTs) were evaluated during the first cycle at each dose level. The safety of 85 mg BID, 7 d-on/7 d-off, was explored after confirming the safety of 14 d-on/14 d-off. The DLTs were defined as hematological toxicities, including G4 neutropenia lasting for more than 5 days, G3 febrile neutropenia, G4 anemia, G4 thrombocytopenia, or G3 thrombocytopenia accompanied by bleeding, and ≥ G3 nonhematological toxicity (except for diarrhea, nausea, vomiting, and rash recovering ≤ G2 after supportive treatment within 3 days). The DLTs for cardiac toxicities included ≥ G2 cardiac valve abnormalities, ≥ G2 left ventricular ejection fraction (LVEF) decrease, any cardiovascular impairment shown in imaging, and abnormal highly sensitive troponin (hs-Tn) increased to ≥ twice the baseline in two consecutive tests with an interval ≥ 3 days. In the expansion part, patients were orally administered GFH018 RDE twice daily to further evaluate the safety of RDE and other dose regimens. […] The treatment cycle lasted 28 days.
# All enrolled patients were monitored regularly after GFH018 administration. Safety assessments included adverse events (AEs), serious AEs (SAEs), laboratory assessments, vital signs, physical examinations, electrocardiography and echocardiography. AEs were graded according to the NCI Common Terminology Criteria for Adverse Events (NCI-CTCAE) v5.0. All AEs were followed up until they were stable or had recovered to baseline. Adverse events of special interest (AESIs) were predefined as echocardiographic abnormalities such as aggravated stenosis or regurgitation of the heart valves, clinically significant decreases in LVEF, brain natriuretic peptide (BNP) or N-terminal pro-brain natriuretic peptide (NT-proBNP) increases, and hs-Tn increases judged by investigators.
# For the safety and efficacy analyses, data from patients who received GFH018 at the same dose in the dose-escalation and expansion cohorts were pooled. The demographic and baseline characteristics were summarized using descriptive methods. Safety and efficacy data were summarized for all patients who received at least one dose of GFH018. The ORR and DCR were summarized by cohort and overall. When the sample size of the analyzed group was ten or more, the Kaplan–Meier method was used to estimate the median PFS and TTP. In this study, treatment-emergent AEs (TEAEs) were defined as AEs that occurred on or after the first dosing date of GFH018 and no later than 30 days after the last dose of GFH018. The incidence and severity of AEs were descriptively summarized according to dose level. The PK parameters of GFH018 were calculated using noncompartmental analysis methods. All plasma PK data were summarized by cohort and visit day or time using descriptive statistics.
smiles,measurement,setting,value
Cc1cccc(-c2nn3c(c2-c2ccc4ncnn4c2/C=C/C(N)=O)CCC3)n1 [GFH018],TEAE: White blood cell count decreased,[1],2 (16.7%) n (%)
same,TEAE: White blood cells urine positive,[1],3 (25.0%) n (%)
same,"TEAE: White blood cells urine positive, any grade (Table S3)",[1],3 (25.0%) n (%)
same,"TEAE: White blood cells urine positive, maximal CTCAE grade G1",[1],3 (25.0%) n (%)
same,"TEAE: White blood cells urine positive, maximal CTCAE grade G2",[1],0 n (%)
same,"TEAE: White blood cells urine positive, maximal CTCAE grade G3",[1],0 n (%)
same,"TEAE: White blood cells urine positive, maximal CTCAE grade G4",[1],0 n (%)
same,"TEAE: White blood cells urine positive, maximal CTCAE grade G5",[1],0 n (%)
same,TRAE: ALP increased,[1],1 (8.3%) n (%)
same,TRAE: ALT increased,[1],2 (16.7%) n (%)
same,TRAE: AST increased,[1],4 (33.3%) n (%)
same,TRAE: Anemia,[1],3 (25.0%) n (%)
same,TRAE: GGT increased,[1],2 (16.7%) n (%)
same,TRAE: LDH increased,[1],2 (16.7%) n (%)
same,TRAE: Lymphocyte count decreased,[1],2 (16.7%) n (%)
same,TRAE: Protein urine present,[1],1 (8.3%) n (%)
same,TRAE: Proteinuria,[1],1 (8.3%) n (%)
same,"Treatment-emergent Proteinuria (grouped PTs), G1",[1],1 (8.3) n (%)
same,"Treatment-emergent Proteinuria (grouped PTs), G2",[1],1 (8.3) n (%)
same,"Treatment-emergent Proteinuria (grouped PTs), G3",[1],1 (8.3) n (%)
same,"Treatment-emergent Proteinuria (grouped PTs: proteinuria and urine protein present), any grade",[1],3 (25.0) n (%)
same,correlation between incidences of TRAEs and dosages,5–85 mg BID,no obvious correlation
same,dose-limiting toxicities (DLTs),"5–85 mg BID, evaluated during the first cycle",No dose-limiting toxicity occurred; also recorded: no DLTs were observed at any dose level; also recorded: without any DLTs
same,skin toxicity,GFH018 as a single agent,No special concerns related to skin toxicity were raised
same,At least one TEAE,Total (N = 50),48 (96.0%) n (%)
same,At least one TEAE (Table S3),Total (N = 50),48 (96.0%) n (%)
same,At least one TRAE,Total (N = 50),43 (86.0%) n (%)
same,TEAE: ALP increased,Total (N = 50),8 (16.0%) n (%)
same,TEAE: ALT increased,Total (N = 50),8 (16.0%) n (%)
same,"TEAE: ALT increased, any grade (Table S3)",Total (N = 50),8 (16.0%) n (%)
same,"TEAE: ALT increased, maximal CTCAE grade G1",Total (N = 50),8 (16.0%) n (%)
same,"TEAE: ALT increased, maximal CTCAE grade G2",Total (N = 50),0 n (%)
same,"TEAE: ALT increased, maximal CTCAE grade G3",Total (N = 50),0 n (%)
same,"TEAE: ALT increased, maximal CTCAE grade G4",Total (N = 50),0 n (%)
same,"TEAE: ALT increased, maximal CTCAE grade G5",Total (N = 50),0 n (%)
same,TEAE: AST increased,Total (N = 50),11 (22.0%) n (%)
same,"TEAE: AST increased, any grade (Table S3)",Total (N = 50),11 (22.0%) n (%)
same,"TEAE: AST increased, maximal CTCAE grade G1",Total (N = 50),10 (20.0%) n (%)
same,"TEAE: AST increased, maximal CTCAE grade G2",Total (N = 50),1 (2.0%) n (%)
same,"TEAE: AST increased, maximal CTCAE grade G3",Total (N = 50),0 n (%)
same,"TEAE: AST increased, maximal CTCAE grade G4",Total (N = 50),0 n (%)
same,"TEAE: AST increased, maximal CTCAE grade G5",Total (N = 50),0 n (%)
same,TEAE: Abdominal distention,Total (N = 50),7 (14.0%) n (%)
same,TEAE: Abdominal pain,Total (N = 50),9 (18.0%) n (%)
same,TEAE: Anemia,Total (N = 50),17 (34.0%) n (%)
same,TEAE: Asthenia,Total (N = 50),9 (18.0%) n (%)
same,TEAE: Bilirubin conjugated increased,Total (N = 50),8 (16.0%) n (%)
same,TEAE: Blood albumin decreased,Total (N = 50),6 (12.0%) n (%)
same,TEAE: Blood bilirubin increased,Total (N = 50),5 (10.0%) n (%)
same,TEAE: C-reactive protein increased,Total (N = 50),5 (10.0%) n (%)
same,"TEAE: C-reactive protein increased, any grade (Table S3)",Total (N = 50),5 (10.0%) n (%)
same,"TEAE: C-reactive protein increased, maximal CTCAE grade G1",Total (N = 50),5 (10.0%) n (%)
same,"TEAE: C-reactive protein increased, maximal CTCAE grade G2",Total (N = 50),0 n (%)
same,"TEAE: C-reactive protein increased, maximal CTCAE grade G3",Total (N = 50),0 n (%)
same,"TEAE: C-reactive protein increased, maximal CTCAE grade G4",Total (N = 50),0 n (%)
same,"TEAE: C-reactive protein increased, maximal CTCAE grade G5",Total (N = 50),0 n (%)
same,TEAE: Constipation,Total (N = 50),8 (16.0%) n (%)
same,TEAE: Decreased appetite,Total (N = 50),6 (12.0%) n (%)
same,"TEAE: Decreased appetite, any grade (Table S3)",Total (N = 50),6 (12.0%) n (%)
same,"TEAE: Decreased appetite, maximal CTCAE grade G1",Total (N = 50),4 (8.0%) n (%)
same,"TEAE: Decreased appetite, maximal CTCAE grade G2",Total (N = 50),2 (4.0%) n (%)
same,"TEAE: Decreased appetite, maximal CTCAE grade G3",Total (N = 50),0 n (%)
same,"TEAE: Decreased appetite, maximal CTCAE grade G4",Total (N = 50),0 n (%)
same,"TEAE: Decreased appetite, maximal CTCAE grade G5",Total (N = 50),0 n (%)
same,TEAE: GGT increased,Total (N = 50),10 (20.0%) n (%)
same,"TEAE: GGT increased, any grade (Table S3)",Total (N = 50),10 (20.0%) n (%)
same,"TEAE: GGT increased, maximal CTCAE grade G1",Total (N = 50),8 (16.0%) n (%)
same,"TEAE: GGT increased, maximal CTCAE grade G2",Total (N = 50),2 (4.0%) n (%)
same,"TEAE: GGT increased, maximal CTCAE grade G3",Total (N = 50),0 n (%)
same,"TEAE: GGT increased, maximal CTCAE grade G4",Total (N = 50),0 n (%)
same,"TEAE: GGT increased, maximal CTCAE grade G5",Total (N = 50),0 n (%)
same,TEAE: Hypoalbuminemia,Total (N = 50),7 (14.0%) n (%)
same,TEAE: LDH increased,Total (N = 50),8 (16.0%) n (%)
same,"TEAE: LDH increased, any grade (Table S3)",Total (N = 50),8 (16.0%) n (%)
same,"TEAE: LDH increased, maximal CTCAE grade G1",Total (N = 50),8 (16.0%) n (%)
same,"TEAE: LDH increased, maximal CTCAE grade G2",Total (N = 50),0 n (%)
same,"TEAE: LDH increased, maximal CTCAE grade G3",Total (N = 50),0 n (%)
same,"TEAE: LDH increased, maximal CTCAE grade G4",Total (N = 50),0 n (%)
same,"TEAE: LDH increased, maximal CTCAE grade G5",Total (N = 50),0 n (%)
same,TEAE: Lymphocyte count decreased,Total (N = 50),12 (24.0%) n (%)
same,TEAE: Platelet count decreased,Total (N = 50),6 (12.0%) n (%)
same,TEAE: Proteinuria,Total (N = 50),11 (22.0%) n (%)
same,TEAE: Sinus tachycardia,Total (N = 50),10 (20.0%) n (%)
same,TEAE: Urine protein present,Total (N = 50),10 (20.0%) n (%)
same,TEAE: White blood cell count decreased,Total (N = 50),7 (14.0%) n (%)
same,TEAE: White blood cells urine positive,Total (N = 50),5 (10.0%) n (%)
same,"TEAE: White blood cells urine positive, any grade (Table S3)",Total (N = 50),5 (10.0%) n (%)
same,"TEAE: White blood cells urine positive, maximal CTCAE grade G1",Total (N = 50),5 (10.0%) n (%)
same,"TEAE: White blood cells urine positive, maximal CTCAE grade G2",Total (N = 50),0 n (%)
same,"TEAE: White blood cells urine positive, maximal CTCAE grade G3",Total (N = 50),0 n (%)
same,"TEAE: White blood cells urine positive, maximal CTCAE grade G4",Total (N = 50),0 n (%)
same,"TEAE: White blood cells urine positive, maximal CTCAE grade G5",Total (N = 50),0 n (%)
same,TRAE: ALP increased,Total (N = 50),5 (10.0%) n (%)
same,TRAE: ALT increased,Total (N = 50),6 (12.0%) n (%)
same,TRAE: AST increased,Total (N = 50),9 (18.0%) n (%)
same,TRAE: Anemia,Total (N = 50),7 (14.0%) n (%)
same,TRAE: GGT increased,Total (N = 50),5 (10.0%) n (%)
same,TRAE: LDH increased,Total (N = 50),5 (10.0%) n (%)
same,TRAE: Lymphocyte count decreased,Total (N = 50),6 (12.0%) n (%)
same,TRAE: Protein urine present,Total (N = 50),6 (12.0%) n (%)
same,TRAE: Proteinuria,Total (N = 50),7 (14.0%) n (%)
same,"Treatment-emergent Proteinuria (grouped PTs), G1",Total (N = 50),12 (24.0) n (%)
same,"Treatment-emergent Proteinuria (grouped PTs), G2",Total (N = 50),8 (16.0) n (%)
same,"Treatment-emergent Proteinuria (grouped PTs), G3",Total (N = 50),1 (2.0) n (%)
same,"Treatment-emergent Proteinuria (grouped PTs: proteinuria and urine protein present), any grade",Total (N = 50),21 (42.0) n (%)
same,"TRAE ALP increased, all G",all 50 patients,10.0%
same,"TRAE ALP increased, ≥G3",all 50 patients,0%
same,"TRAE ALT increased, all G",all 50 patients,12%
same,"TRAE ALT increased, ≥G3",all 50 patients,0%
same,"TRAE AST increased, all G",all 50 patients,18%
same,"TRAE AST increased, ≥G3",all 50 patients,0%
same,"TRAE GGT increased, all G",all 50 patients,10.0%
same,"TRAE GGT increased, ≥G3",all 50 patients,0%
same,"TRAE LDH increased, all G",all 50 patients,10.0%
same,"TRAE LDH increased, ≥G3",all 50 patients,0%
same,"TRAE anemia, all G",all 50 patients,14%
same,"TRAE anemia, ≥G3",all 50 patients,2%
same,"TRAE lymphocyte count decreased, all G",all 50 patients,12.0%
same,"TRAE lymphocyte count decreased, ≥G3",all 50 patients,2.0%
same,"TRAE proteinuria, all G",all 50 patients,14%
same,"TRAE proteinuria, ≥G3",all 50 patients,2%
same,"TRAE urine protein present, all G",all 50 patients,12.0%
same,"TRAE urine protein present, ≥G3",all 50 patients,0%
same,bleeding events,all 50 patients,No significant cardiotoxicity or bleeding was observed; also recorded: No bleeding events occurred
same,cardiotoxicity,all 50 patients,No significant cardiotoxicity or bleeding was observed; also recorded: No significant cardiotoxicity was observed; also recorded: No significant cardiovascular toxicities were observed
same,changes in serum creatinine levels or estimated glomerular filtration rate,all 50 patients,no clinically significant changes
same,grade 4 or 5 TRAEs,all 50 patients,No grade 4 or 5 TRAEs were observed
same,patients with grade 3 proteinuria,all 50 patients,one
same,patients with at least one TEAE,"all 50 patients, 5-85 mg",~96.0%
same,patients with at least one TRAE,"all 50 patients, 5-85 mg",86.0%
same,patients with at least one ≥ G3 TEAE,"all 50 patients, 5-85 mg",26.0%
same,patients with ≥ G3 TRAEs,"all 50 patients, 5-85 mg",6%
same,deaths,"all 50 patients, all judged unrelated to GFH018",Six
same,patients with at least one serious AE (SAE),[2],nine
same,"treatment discontinuation due to AEs (bilirubin increased, peripheral edema)",[2],two
same,severity of AESIs,"all 50 patients, without clinical symptoms or signs",mild (Grade 1)
same,maximum tolerated dose (MTD),eight dose levels up to 85 mg,not reached
